Data on 23 compounds can be found in US20100311714A1, “1H-IMIDAZO[4,5-c]QUINOLINONE COMPOUNDS” (priority 2009, published 2010).

The target in one experiment is T1, PI3K alfa (Homo sapiens, UniProt P42336).
T1 construct: His tag (C); made in house; host or cells: baculovirus BV1075; Tn5 (Trichoplusia ni) or TiniPro insect cells
As to the kind of experiment: PI3K alpha kinase assay (Kinase-Glo luminescence). The format is biochemical. The method in brief:
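Kinase-Glo luminescence read of ATP remaining after PI3Kα (10 nM) phosphorylates 10 μg/mL bovine liver phosphatidylinositol with 1 μM ATP, pH 7.5 TRIS, 3 mM MgCl2, 0.05% CHAPS; 60 min at room temperature. IC50 from 4-parameter logistic fit over 8 concentrations.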
A general note: Kinase-Glo measures the ATP left after a reaction by luminescence.

The target of the next experiment is T2, PI3K delta (Homo sapiens, UniProt O00329).
T2 construct: for the full-length p110-d subunit are generated and fused by overlapping PCR; His tag (C); made in house; host or cells: baculovirus BV1060; Tn5 (Trichoplusia ni) or TiniPro insect cells
As to the kind of experiment: PI3K delta kinase assay (Kinase-Glo luminescence). The format is biochemical. The method in brief:
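Kinase-Glo ATP-depletion luminescence using 10 nM p85(iSH2)-linker-p110δ full-length His-tag construct from insect cells, with 1 μM ATP and 10 μg/mL phosphatidylinositol in 10 mM Tris pH 7.5, 3 mM MgCl2, 50 mM NaCl, 0.05% CHAPS, 1 mM DTT. 60 min room temperature; IC50 from 4-parameter logistic fit over 8 concentrations.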

Like-named read-outs stand apart in the source and are kept apart here.

T2 sequence (O00329 with tags, fused parts or gaps limits assumed): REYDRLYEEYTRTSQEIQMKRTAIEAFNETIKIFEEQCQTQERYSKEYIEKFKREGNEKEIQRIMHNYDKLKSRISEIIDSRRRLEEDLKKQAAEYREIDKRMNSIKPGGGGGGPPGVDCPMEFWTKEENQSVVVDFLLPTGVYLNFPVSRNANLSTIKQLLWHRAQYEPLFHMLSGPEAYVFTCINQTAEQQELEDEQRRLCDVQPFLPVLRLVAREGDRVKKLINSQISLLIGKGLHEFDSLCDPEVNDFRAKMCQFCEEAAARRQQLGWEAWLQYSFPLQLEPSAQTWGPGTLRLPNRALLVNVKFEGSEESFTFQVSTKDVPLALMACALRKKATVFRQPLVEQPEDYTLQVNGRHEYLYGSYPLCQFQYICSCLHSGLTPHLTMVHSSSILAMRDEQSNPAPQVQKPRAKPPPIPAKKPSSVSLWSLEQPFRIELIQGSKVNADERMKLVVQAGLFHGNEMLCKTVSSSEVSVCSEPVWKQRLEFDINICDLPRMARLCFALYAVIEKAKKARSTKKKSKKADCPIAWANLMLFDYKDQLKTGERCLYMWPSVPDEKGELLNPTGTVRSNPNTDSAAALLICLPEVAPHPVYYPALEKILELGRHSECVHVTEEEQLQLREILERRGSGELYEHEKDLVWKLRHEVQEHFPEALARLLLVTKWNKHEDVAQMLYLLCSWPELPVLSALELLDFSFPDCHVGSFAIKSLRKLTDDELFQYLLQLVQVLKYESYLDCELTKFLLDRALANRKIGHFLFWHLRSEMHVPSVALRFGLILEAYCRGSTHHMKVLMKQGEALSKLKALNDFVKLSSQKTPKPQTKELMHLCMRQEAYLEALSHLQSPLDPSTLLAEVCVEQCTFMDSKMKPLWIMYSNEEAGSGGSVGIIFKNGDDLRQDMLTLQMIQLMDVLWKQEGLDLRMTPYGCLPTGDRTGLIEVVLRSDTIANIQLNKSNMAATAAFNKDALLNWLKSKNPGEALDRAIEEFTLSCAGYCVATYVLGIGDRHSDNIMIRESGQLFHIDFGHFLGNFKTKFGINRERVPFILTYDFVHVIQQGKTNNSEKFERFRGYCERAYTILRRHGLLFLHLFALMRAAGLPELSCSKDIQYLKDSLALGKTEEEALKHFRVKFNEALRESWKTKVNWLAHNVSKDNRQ
T1 sequence (P42336 with tags, fused parts or gaps limits assumed): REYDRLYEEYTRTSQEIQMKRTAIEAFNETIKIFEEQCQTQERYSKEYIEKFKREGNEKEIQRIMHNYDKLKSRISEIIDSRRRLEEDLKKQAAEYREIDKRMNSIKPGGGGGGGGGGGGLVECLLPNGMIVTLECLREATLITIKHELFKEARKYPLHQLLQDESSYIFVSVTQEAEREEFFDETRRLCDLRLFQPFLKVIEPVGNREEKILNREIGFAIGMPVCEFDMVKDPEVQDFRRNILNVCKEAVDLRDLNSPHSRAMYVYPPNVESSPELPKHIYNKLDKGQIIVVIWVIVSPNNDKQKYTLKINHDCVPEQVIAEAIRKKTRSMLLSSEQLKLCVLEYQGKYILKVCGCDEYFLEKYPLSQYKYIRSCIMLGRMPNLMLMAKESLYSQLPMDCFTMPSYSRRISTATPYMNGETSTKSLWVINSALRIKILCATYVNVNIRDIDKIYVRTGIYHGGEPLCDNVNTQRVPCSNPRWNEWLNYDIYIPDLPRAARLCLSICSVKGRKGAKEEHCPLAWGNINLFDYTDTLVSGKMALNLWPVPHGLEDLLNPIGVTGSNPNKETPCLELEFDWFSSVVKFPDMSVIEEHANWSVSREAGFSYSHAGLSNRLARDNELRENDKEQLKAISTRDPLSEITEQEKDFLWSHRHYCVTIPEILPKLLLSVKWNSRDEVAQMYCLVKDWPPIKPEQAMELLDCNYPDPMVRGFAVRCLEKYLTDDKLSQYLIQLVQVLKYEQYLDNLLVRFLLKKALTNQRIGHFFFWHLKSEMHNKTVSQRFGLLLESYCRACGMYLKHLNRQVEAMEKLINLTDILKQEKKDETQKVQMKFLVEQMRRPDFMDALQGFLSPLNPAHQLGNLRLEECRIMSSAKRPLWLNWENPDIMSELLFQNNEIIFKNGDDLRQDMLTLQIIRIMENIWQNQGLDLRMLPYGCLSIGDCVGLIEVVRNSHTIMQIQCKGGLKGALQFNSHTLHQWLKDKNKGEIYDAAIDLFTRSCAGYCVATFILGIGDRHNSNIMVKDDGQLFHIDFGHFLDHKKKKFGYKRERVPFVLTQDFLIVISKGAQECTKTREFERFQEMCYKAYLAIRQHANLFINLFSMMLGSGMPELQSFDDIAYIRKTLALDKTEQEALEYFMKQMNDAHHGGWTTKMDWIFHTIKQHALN

As to `CNC(=O)c1ccc(-c2ccc3ncc4c(c3c2)n(-c2cccnc2C)c(=O)n4C)cc1` [Example 2.4, N-Methyl-4-[3-methyl-1-(2-methyl-pyridin-3-yl)-2-oxo-2,3-dihydro-1H-imidazo[4,5-c]quinolin-8-yl]-benzamide], the figures for the IC50 at PI3K alfa (read-out: PI3Kalfa/IC50) and on PI3K delta (read-out: PI3Kdelta/IC50) were 29 nM and 221 nM, respectively.

Turning to `Cc1ncccc1-n1c(=O)n(C)c2cnc3ccc(-c4cnc5[nH]ccc5c4)cc3c21` [Example 2.8, 3-Methyl-1-(2-methyl-pyridin-3-yl)-8-(1H-pyrrolo[2,3-b]pyridin-5-yl)-1,3-dihydro-imidazo[4,5-c]quinolin-2-one], the IC50 at PI3K alfa (read-out: PI3Kalfa/IC50) was 26 nM; at PI3K delta (read-out: PI3Kdelta/IC50) it was 35 nM.

For the compound `COCc1ncc(-c2ccc3ncc4c(c3c2)n(-c2cccnc2C)c(=O)n4C)cc1OC` [Example 2.30, 8-(5-Methoxy-6-methoxymethyl-pyridin-3-yl)-3-methyl-1-(2-methyl-pyridin-3-yl)-1,3-dihydro-imidazo[4,5-c]quinolin-2-one], the values for the IC50 on PI3K alfa (read-out: EPK_PI3Kalfa/IC50) and at PI3K delta (read-out: EPK_PI3Kdelta/IC50) were 75 nM and 53 nM, respectively.

In the case of `Cn1c(=O)n(-c2cccnc2F)c2c3cc(-c4cnc5[nH]ccc5c4)ccc3ncc21` [Example 6.3, 1-(2-Fluoro-pyridin-3-yl)-3-methyl-8-(1H-pyrrolo[2,3-b]pyridin-5-yl)-1,3-dihydro-imidazo[4,5-c]quinolin-2-one], the IC50 on PI3K alfa (read-out: PI3Kalfa/IC50) was 41 nM; at PI3K delta (read-out: PI3Kdelta/IC50), 78 nM.

As to `Cc1nc(F)ccc1-n1c(=O)n(C)c2cnc3ccc(-c4cncc(N5CCC5)c4)cc3c21` [Example 7.6, 8-(5-Azetidin-1-yl-pyridin-3-yl)-1-(6-fluoro-2-methyl-pyridin-3-yl)-3-methyl-1,3-dihydro-imidazo[4,5-c]quinolin-2-one], the figures for the IC50 on PI3K alfa (read-out: EPK_PI3Kalfa/IC50) and on PI3K delta (read-out: EPK_PI3Kdelta/IC50) were 68 nM and 148 nM, respectively.

For the compound `COCc1ncc(-c2ccc3ncc4c(c3c2)n(-c2ccc(F)nc2C)c(=O)n4C)cc1OC` [Example 7.7, 1-(6-Fluoro-2-methyl-pyridin-3-yl)-8-(5-methoxy-6-methoxymethyl-pyridin-3-yl)-3-methyl-1,3-dihydro-imidazo[4,5-c]quinolin-2-one], the values for the IC50 at PI3K alfa (read-out: EPK_PI3Kalfa/IC50) and at PI3K delta (read-out: EPK_PI3Kdelta/IC50) were 127 nM and 79 nM, respectively.

Take `COc1cc(-c2ccc3ncc4c(c3c2)n(-c2ccc(F)nc2C)c(=O)n4C)cnc1CO` [Example 7.10, 1-(6-Fluoro-2-methyl-pyridin-3-yl)-8-(6-hydroxymethyl-5-methoxy-pyridin-3-yl)-3-methyl-1,3-dihydro-imidazo[4,5-c]quinolin-2-one]: the IC50 at PI3K alfa (read-out: EPK_PI3Kalfa/IC50) turned out to be 24 nM; at PI3K delta (read-out: EPK_PI3Kdelta/IC50), 186 nM.

On to `COc1ccc(-n2c(=O)n(C)c3cnc4ccc(-c5cncc(N6CCC6)c5)cc4c32)c(OC)n1` [Example 8.11, 8-(5-Azetidin-1-yl-pyridin-3-yl)-1-(2,6-dimethoxy-pyridin-3-yl)-3-methyl-1,3-dihydro-imidazo[4,5-c]quinolin-2-one], for which the IC50 at PI3K alfa (read-out: EPK_PI3Kalfa/IC50) is 365 nM; at PI3K delta (read-out: EPK_PI3Kdelta/IC50), 126 nM.

For `COc1ccc(-n2c(=O)n(C)c3cnc4ccc(-c5cnc(C(OC)OC)c(OC)c5)cc4c32)c(OC)n1` [Example 8.13, 8-(6-Dimethoxymethyl-5-methoxy-pyridin-3-yl)-1-(2,6-dimethoxy-pyridin-3-yl)-3-methyl-1,3-dihydro-imidazo[4,5-c]quinolin-2-one], the IC50 on PI3K alfa (read-out: EPK_PI3Kalfa/IC50) was 247 nM; on PI3K delta (read-out: EPK_PI3Kdelta/IC50), 167 nM.

As to `COc1ccc(-n2c(=O)n(C)c3cnc4ccc(-c5cnc(CO)c(OC)c5)cc4c32)c(OC)n1` [Example 8.14, 1-(2,6-Dimethoxy-pyridin-3-yl)-8-(6-hydroxymethyl-5-methoxy-pyridin-3-yl)-3-methyl-1,3-dihydro-imidazo[4,5-c]quinolin-2-one], the values for the IC50 on PI3K alfa (read-out: EPK_PI3Kalfa/IC50) and on PI3K delta (read-out: EPK_PI3Kdelta/IC50) were 59 nM and 311 nM, respectively.

In the case of `COc1cc(-c2ccc3ncc4c(c3c2)n(-c2ccc(N3CC(F)(F)C3)nc2C)c(=O)n4C)cnc1CO` [Example 24.4, 1-[6-(3,3-Difluoro-azetidin-1-yl)-2-methyl-pyridin-3-yl]-8-(6-hydroxymethyl-5-methoxy-pyridin-3-yl)-3-methyl-1,3-dihydro-imidazo[4,5-c]quinolin-2-one], the IC50 at PI3K alfa (read-out: EPK_PI3Kalfa/IC50) is 56 nM; at PI3K delta (read-out: EPK_PI3Kdelta/IC50), 248 nM.

Turning to `COc1cc(-c2ccc3ncc4c(c3c2)n(-c2ccc(N3CCCC3)nc2C)c(=O)n4C)cnc1CO` [Example 25.4, 8-(6-Hydroxymethyl-5-methoxy-pyridin-3-yl)-3-methyl-1-(2-methyl-6-pyrrolidin-1-yl-pyridin-3-yl)-1,3-dihydro-imidazo[4,5-c]quinolin-2-one], the IC50 at PI3K alfa (read-out: EPK_PI3Kalfa/IC50) is 27 nM; at PI3K delta (read-out: EPK_PI3Kdelta/IC50), 272 nM.

Turning to `CCNc1cc(-c2ccc3ncc4c(c3c2)n(-c2ccc(N3CCCC3)nc2C)c(=O)n4C)cnc1CO` [Example 25.5, 8-(5-Ethylamino-6-hydroxymethyl-pyridin-3-yl)-3-methyl-1-(2-methyl-6-pyrrolidin-1-yl-pyridin-3-yl)-1,3-dihydro-imidazo[4,5-c]quinolin-2-one], the results for the IC50 on PI3K alfa (read-out: EPK_PI3Kalfa/IC50) and on PI3K delta (read-out: EPK_PI3Kdelta/IC50) were 28 nM and 33 nM, respectively.

In the case of `CCNc1cc(-c2ccc3ncc4c(c3c2)n(-c2ccc(N(C)CCO)nc2C)c(=O)n4C)cnc1CO` [Example 26.3, 8-(5-Ethylamino-6-hydroxymethyl-pyridin-3-yl)-1-{6-[(2-hydroxy-ethyl)-methyl-amino]-2-methyl-pyridin-3-yl}-3-methyl-1,3-dihydro-imidazo[4,5-c]quinolin-2-one], the IC50 on PI3K alfa (read-out: EPK_PI3Kalfa/IC50) amounted to 84 nM; on PI3K delta (read-out: EPK_PI3Kdelta/IC50), 287 nM.

With `Cc1nc(N2CCC(O)C2)ccc1-n1c(=O)n(C)c2cnc3ccc(-c4cnc(N)c(C(F)(F)F)c4)cc3c21` (stereo not shown) [Example 27.3, 8-(6-Amino-5-trifluoromethyl-pyridin-3-yl)-1-[6-(3-hydroxy-pyrrolidin-1-yl)-2-methyl-pyridin-3-yl]-3-methyl-1,3-dihydro-imidazo[4,5-c]quinolin-2-one], the values for the IC50 at PI3K alfa (read-out: EPK_PI3Kalfa/IC50) and at PI3K delta (read-out: EPK_PI3Kdelta/IC50) were 5 nM and < 3 nM, respectively.

Regarding `CCOc1ccc(-c2ccc3ncc4c(c3c2)n(-c2ccc(N3CCC(O)C3)nc2C)c(=O)n4C)cn1` (stereo not shown) [Example 27.4, 8-(6-Ethoxy-pyridin-3-yl)-1-[6-(3-hydroxy-pyrrolidin-1-yl)-2-methyl-pyridin-3-yl]-3-methyl-1,3-dihydro-imidazo[4,5-c]quinolin-2-one], the values for the IC50 on PI3K alfa (read-out: EPK_PI3Kalfa/IC50) and on PI3K delta (read-out: EPK_PI3Kdelta/IC50) were 39 nM and 193 nM, respectively.

With `Cc1nc(N2CCC(O)C2)ccc1-n1c(=O)n(C)c2cnc3ccc(-c4cncc(C(C)(C)O)c4)cc3c21` (stereo not shown) [Example 27.5, 8-[5-(1-Hydroxy-1-methyl-ethyl)-pyridin-3-yl]-1-[6-(3-hydroxy-pyrrolidin-1-yl)-2-methyl-pyridin-3-yl]-3-methyl-1,3-dihydro-imidazo[4,5-c]quinolin-2-one], the figures for the IC50 on PI3K alfa (read-out: EPK_PI3Kalfa/IC50) and at PI3K delta (read-out: EPK_PI3Kdelta/IC50) were 10 nM and 148 nM, respectively.

With `CNc1ncc(-c2ccc3ncc4c(c3c2)n(-c2ccc(N3CCC(OC)C3)nc2C)c(=O)n4C)cn1` (stereo not shown) [Example 28.2, 1-[6-(3-Methoxy-pyrrolidin-1-yl)-2-methyl-pyridin-3-yl]-3-methyl-8-(2-methylamino-pyrimidin-5-yl)-1,3-dihydro-imidazo[4,5-c]quinolin-2-one], the IC50 at PI3K alfa (read-out: EPK_PI3Kalfa/IC50) was 34 nM; on PI3K delta (read-out: EPK_PI3Kdelta/IC50), 159 nM.

Regarding `COc1cc(-c2ccc3ncc4c(c3c2)n(-c2ccc(N3CCC(OC)C3)nc2C)c(=O)n4C)cnc1CO` (stereo not shown) [Example 28.3, 8-(6-Hydroxymethyl-5-methoxy-pyridin-3-yl)-1-[6-(3-methoxy-pyrrolidin-1-yl)-2-methyl-pyridin-3-yl]-3-methyl-1,3-dihydro-imidazo[4,5-c]quinolin-2-one], the results for the IC50 on PI3K alfa (read-out: EPK_PI3Kalfa/IC50) and on PI3K delta (read-out: EPK_PI3Kdelta/IC50) were 23 nM and 42 nM, respectively.

For `Cc1nc(N2CC(O)C2)ccc1-n1c(=O)n(C)c2cnc3ccc(-c4cncc(C(C)(C)O)c4)cc3c21` [Example 29.1, 1-[6-(3-Hydroxy-azetidin-1-yl)-2-methyl-pyridin-3-yl]-8-[5-(1-hydroxy-1-methyl-ethyl)-pyridin-3-yl]-3-methyl-1,3-dihydro-imidazo[4,5-c]quinolin-2-one], the IC50 on PI3K alfa (read-out: EPK_PI3Kalfa/IC50) and at PI3K delta (read-out: EPK_PI3Kdelta/IC50) was 19 nM in each case.

`COc1cc(-c2ccc3ncc4c(c3c2)n(-c2ccc(N)nc2C)c(=O)n4C)cnc1CO` [Example 30.1, 1-(6-Amino-2-methyl-pyridin-3-yl)-8-(6-hydroxymethyl-5-methoxy-pyridin-3-yl)-3-methyl-1,3-dihydro-imidazo[4,5-c]quinolin-2-one]: the values for the IC50 on PI3K alfa (read-out: EPK_PI3Kalfa/IC50) and at PI3K delta (read-out: EPK_PI3Kdelta/IC50) were 54 nM and 118 nM, respectively.

For `CNc1ncc(-c2ccc3ncc4c(c3c2)n(-c2ccc(N3CC[C@H](O)C3)nc2C)c(=O)n4C)cc1Cl` [Example 32.4, 8-(5-Chloro-6-methylamino-pyridin-3-yl)-1-[6-((S)-3-hydroxy-pyrrolidin-1-yl)-2-methyl-pyridin-3-yl]-3-methyl-1,3-dihydro-imidazo[4,5-c]quinolin-2-one], the IC50 at PI3K alfa (read-out: EPK_PI3Kalfa/IC50) was found to be 18 nM; on PI3K delta (read-out: EPK_PI3Kdelta/IC50) it was 5 nM.

With `COc1cc(-c2ccc3ncc4c(c3c2)n(-c2ccc(N3CC[C@H](O)C3)nc2C)c(=O)n4C)cnc1CO` [Example 32.7, 8-(6-Hydroxymethyl-5-methoxy-pyridin-3-yl)-1-[6-((S)-3-hydroxy-pyrrolidin-1-yl)-2-methyl-pyridin-3-yl]-3-methyl-1,3-dihydro-imidazo[4,5-c]quinolin-2-one], the IC50 at PI3K alfa (read-out: EPK_PI3Kalfa/IC50) was found to be 26 nM; on PI3K delta (read-out: EPK_PI3Kdelta/IC50), 35 nM.
